Values of other authors as cited in patent US7022337B2 (Shire Laboratories, Inc., priority 2002, dated 2006).

Conditions: prolonged treatment, 300 to 400 mg per day

In the case of `CC(C)OC(=O)C(C)(C)Oc1ccc(C(=O)c2ccc(Cl)cc2)cc1` [Fenofibrate, 2-[4-(4-Chlorobenzoyl)phenoxy]-2-methylpropanoic acid 1-methylethyl ester], the “Reduction in the levels of triglycerides” value is given as 40 to 50% and the “Reduction in total cholesterol” value is given as 20 to 25%.
